# Reference: the supplement of paper PMC11208160
# Assay: recombinant barcode read abundance after kanamycin selection (control-corrected) (log10(CPM+1)); higher = more efficient recombination; sequences stand for … in AGTGCAGAGAAAATCGGCCAGTTTTCTCTGCCTGCAGTCCGCATGCCGT…AGATTTATGCAGCGGACTGCCTTTCTCCCAAAGTGATAAACCGGACAGTATCATGGACCGGTTTTCCCGGTAATCCGTATTTGCAAGGTTGGTTTCACT; site = the 11-nt target
# Outline: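 Reported as log10(CPM+1), each value stands for recombination efficiency. That efficiency is the averaged, control-corrected counts per million of barcodes found at recombinant junctions. Cells from a pooled E. coli library pairing targets with IS621 bridge RNA target-binding loops were plated twice on chloramphenicol/ampicillin LB agar (control) and twice on chloramphenicol/ampicillin/kanamycin with 0.1 mM IPTG.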
# 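Note: IS621 recombinase and bridge RNA in Escherichia coli cells.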
row,Sequence,recombinant barcode read abundance (log10)
1,GCTGTATCTTGGGTTCTAACCTGTTGCCT (site GCTGTATCTAG),0.612
2,GCTGTATCTTGGGTTCTAACCTGTTGCCT (site TCTGTATCTAG),0.0648
3,GCTTCTTCTTGGGTTCTAACCTGTTGCCT (site GATTCTTCTAG),0.398
4,GCTTCTTCTTGGGTTCTAACCTGTTGCCT (site GCTTCTTCTAG),0.0876
5,GCTTCTTCTTGGGTTCTAACCTGTTGCCT (site GGTTCTTCTAG),0.0632
6,GCTTCTTCTTGGGTTCTAACCTGTTGCCT (site GTTTCTTCTAG),0.0974
7,GCTTGAGCTTGGGTTCTAACCTGTTGCCG (site CCTTGAGCTCA),0.0954
8,GCTTGAGCTTGGGTTCTAACCTGTTGCCG (site GCTTGAGCTCG),0.344
9,GCTTGAGCTTGGGTTCTAACCTGTTGCCT (site GCATGAGCTAG),0.421
10,GCTTGAGCTTGGGTTCTAACCTGTTGCCT (site GCCTGAGCTAG),0.158
11,GCTTGAGCTTGGGTTCTAACCTGTTGCCT (site GCGTGAGCTAG),0.139
12,GCTTGAGCTTGGGTTCTAACCTGTTGCCT (site GCTTGAGCTAG),0.589
13,GCTTGGACTTGGGTTCTAACCTGTTGCCT (site GCTTGGACTAG),0.467
14,GCTTGGACTTGGGTTCTAACCTGTTGCCT (site GCTTTGACTAG),0.0492
15,GCTTGTTCTTGGGTTCTAACCTGTTGCCT (site ACTTGTTCTAG),0.0443
16,GCTTGTTCTTGGGTTCTAACCTGTTGCCT (site CCTTGTTCTAG),0.501
17,GCTTGTTCTTGGGTTCTAACCTGTTGCCT (site GCTTGTTCTAG),0.233
18,GCTTGTTCTTGGGTTCTAACCTGTTGCCT (site TCTTGTTCTAG),0.11
19,GCTTTACCTTGGGTTCTAACCTGTTGCCT (site ACTTTACCTAG),0.0836
20,GCTTTACCTTGGGTTCTAACCTGTTGCCT (site CCTTTACCTAG),0.019
21,GCTTTACCTTGGGTTCTAACCTGTTGCCT (site GCTTTACCTAG),0.456
22,GCTTTACCTTGGGTTCTAACCTGTTGCCT (site TCTTTACCTAG),0.0534

row,Sequence,recombinant barcode read abundance (log10)
1,GCTTTGCCTTGGGTTCTAACCTGTTGCCT (site ACTTTCCCTAG),0.0475
2,GCTTTGCCTTGGGTTCTAACCTGTTGCCT (site GCTTTGCCTAG),0.409
3,GGAACGTCTTGGGTTCTAACCTGTTGCTT (site GGAACCTCTAA),0.0353
4,GGAACGTCTTGGGTTCTAACCTGTTGCTT (site GGAACGTCTAA),1.06
5,GGAACTACTTGGGTTCTAACCTGTTGCAC (site GGAACTACTGT),0.838
6,GGAACTACTTGGGTTCTAACCTGTTGCAC (site TTGCTAGCTCC),0.114
7,GGAAGCCCTTGGGTTCTAACCTGTTGCTA (site AACTAAGCTAG),0.0242
8,GGAAGCCCTTGGGTTCTAACCTGTTGCTA (site GGAAGCCCTTA),0.694
9,GGAAGTTCTTGGGTTCTAACCTGTTGCCT (site GAAAGTTCTAG),0.0496
10,GGAAGTTCTTGGGTTCTAACCTGTTGCCT (site GCAAGTTCTAG),0.0862
11,GGAAGTTCTTGGGTTCTAACCTGTTGCCT (site GGAAGTTCTAG),0.732
12,GGAAGTTCTTGGGTTCTAACCTGTTGCCT (site GTAAGTTCTAG),0.754
13,GGAATACCTTGGGTTCTAACCTGTTGCCT (site GGAATACCTAG),1.36
14,GGAATACCTTGGGTTCTAACCTGTTGCCT (site GGAATCCCTAG),0.157
15,GGAATACCTTGGGTTCTAACCTGTTGCCT (site GGAATGCCTAG),0.0994
16,GGAATACCTTGGGTTCTAACCTGTTGCCT (site GGAATTCCTAG),0.0368
17,GGAATGCCTTGGGTTCTAACCTGTTGCCT (site GGAATACCTAG),0.79
18,GGAATGCCTTGGGTTCTAACCTGTTGCCT (site GGAATCCCTAG),0.0574
19,GGAATGCCTTGGGTTCTAACCTGTTGCCT (site GGAATGCCTAG),0.975
20,GGAATGCCTTGGGTTCTAACCTGTTGCCT (site GGAATTCCTAG),0.0966
21,GGAATGTCTTGGGTTCTAACCTGTTGCCT (site GAAATGTCTAG),0.344
